This note sets out measurements from patent US10220025B1, “Self-emulsifying formulation of CARP-1 functional mimetics” (Florida A&M University, priority 2016, dated 2019).

Data set [1] deals with drug-resistant TNBC cells. Kind of data set: MTT viability assay, drug-resistant TNBC sublines (not singled out). The data set is classed as cell-based. Conditions: 12 h; FIGS. 4A-4E. How it is done:
Human TNBC MDA-MB-468 and MDA-MB-231, and mouse TNBC 4T1 cells were cultured in the chronic presence (>10 months) of Doxorubicin. The parental, wild-type cells were initially treated with 200 nM Doxorubicin for 2-3 weeks, followed by escalation to 400 nM, 1 μM, and 2 μM doses over a period of 3-4 weeks for each dose till resistance developed and the cells became well adapted to growth in […] of Doxorubicin for their routine culture. In the case of Cisplatin however, the human TNBC MDA-MB-468 and MDA-MB-231 were initially cultured in continuous presence of 1 μM Cisplatin for 3-4 weeks, and the dose was escalated to 1.5 μM and 3 μM over periods of 3-4 weeks for each dose till resistance developed and cells became adapted to routine culture in 3 μM dose. Subsequent, routine maintenance of the resistant cells in the presence of the respective drug was continued and multiple, resistant sublines for each of the TNBC cells were isolated and characterized for their growth inhibitory (GI)50 dose of respective therapeutic by the MTT-based viability assays as below.

The subject of data set [2] is CARP-1, cyclin B1, cleaved PARP, caspase-8, p38, MKK4, JNK1/2 in TNBC cells. The data set is described as follows: Western blot, apoptosis and SAPK signaling. Type of data set: cell-based.
Description: For protein expression analysis, Western blot (WB) experiments were performed according to the standard procedures. The cells were either untreated or treated with various agents either alone or in combinations as indicated. Following treatment durations, the cells were lysed in cell lysis (10×) buffer (#9803; cell signaling) containing 0.1% of protease and phosphatase inhibitor cocktail (Sigma) for 20 min at 4° C. The lysates were centrifuged at 14,000 rpm at 4° C. for 15-20 min to remove debris. Protein concentrations of whole cell lysates were determined using the Protein Assay Kit. Supernatant proteins, 50-100 μg from each sample, were separated by SDS-polyacrylamide gel electrophoresis (SDS-PAGE) and transferred to polyvinylidene difluoride (PVDF) membrane (Bio-rad, Hercules, Calif.) by standard procedures. […] The antibody-bound proteins were visualized by treatment with the chemiluminescence detection reagent according to manufacturer's instructions, followed by exposure to X-ray film (Denville Scientific Inc.). The same membranes were re-probed with the anti-β-actin or anti-α-tubulin antibody, which was used as an internal control for protein loading.
Data set [3] can be described thus: maximal tolerated dose determination. The data set is classed as in vivo. The source says: J. Biomed. Nanotechnol. 2015; 11:1608-1627]. […] Results was expressed as percentage.

Take `O=C1N(Cc2ccccc2Cl)c2ccccc2C12NN=C(c1cccc(Cl)c1)S2` (stereo not drawn) [CFM-4.16]: the “growth of ADR or Cisplatin-resistant TNBC sublines” value in data set [1] is reported as “effectively inhibited growth”. In addition, the “apoptosis and SAPK markers in parental and drug-resistant TNBC cells” value in data set [2] (FIGS. 5A-5C, 6A-6D) was “activated pro-apoptotic SAPKs p38α/β and JNK1/2, caspase-8, while causing cleavage of PARP and decline in mitotic cyclin B1 levels”. The “activation of pro-apoptotic SAPKs in comparison with CFM-4” value in data set [2] (parental and resistant TNBC cells, FIG. 5C) was “rather robust activation of both the pro-apoptotic SAPKs”. The molecule also yielded a weight loss in data set [3] (daily iv 24-32 mg/kg days 1-16, total dose 482 mg/kg, by day 7 (recovery by day 18)) of 1.6 % body weight. Moreover, in data set [3] (daily iv, total dose 482 mg/kg), the clinical signs entry was “mild ataxia with some tail and leg twitching resolving within 1-2 minutes”; the histology entry is “No other histological abnormalities”.
